Test results taken from patent US10428159B2, “Blocking monoclonal antibodies to AGR2 and its receptor C4.4A” (Board of Regents, The University of Texas System, priority 2014, dated 2019).

How the values were obtained:
[1] = tested on: AsPC-1 cells; assay: Apoptosis assay (Gem, rAGR2, antibodies); type: cell-based; settings: AsPC-1, 5 μM Gem
Experimental: FIGS. 11A-D. Monoclonal antibodies developed bind respectively to AGR2 and C4.4A proteins and blocked their functions. From the endogenous lysate (SU86.86/Panc-1), AGR2 (18 kD) and C4.4A (50 kD) were identified by a panel of mAbs. […] Extra bands identified with the endogenous protein were re-confirmed with the recombinant protein. For apoptosis studies, AsPC-1 cells were treated without or with Gem (0.5 μM) and rAGR2 (100 nM) and with purified (A) AGR2 and (B) C4.4A Abs (1 μM). Commercially available Abs served as control. […] Horizontal line represents median apoptotic value. Data shown are mean±SE for 3 experiments (*p<0.05). (C,D) Binding assays were conducted with purified (C) AGR2 and (D) C4.4A Abs as selected from the apoptosis assay as having high blocking efficiency. ELISA assays were conducted by coating antigenic peptide (0.5 μg) and probed with respective purified Abs. Data shown are mean±SE for 3 experiments (*p <0.05). Based on high specificity and binding, clone 28B for AGR2 and 1A for C4.4A were selected. Purified Abs were also run on 4-20% gradient gel to check for the presence of heavy (50 kD) and light chains (25 kD).
(§1) Cell growth, migration, invasion and apoptosis assays. Wild-type and siRNA transfected PDAC cells were grown with rAGR2 (0-500 nM) in the presence and absence of antibodies (polyclonal commercial or newly developed mAbs) (1 μM). The medium was refreshed daily. […]

[2] = tested on: BxPC-3 cells; assay: Apoptosis assay (Gem, rAGR2); type: cell-based; settings: BxPC-3, Gem 1 μM
Experimental: FIGS. 7A-D. Extracellular rAGR2-mediated functions. (A) Pancreatic cancer cells (BxPC-3 and MiaPaCa-2) were used for these studies. Extracellular addition of rAGR2 caused a significant dose-dependent increase in proliferation (BxPC-3-3-fold increase; MiaPaCa-2-4-fold increase; p<0.05). Pancreatic cancer cells were plated (2×10^4 cells) with and without rAGR2 (0-100 nM) on a Boyden's chamber for migration studies (B) and on an invasion chamber for invasion studies (C). After 22 h, cells were fixed with methanol and stained by hematoxylin, and cells in 10 random fields at 100× magnification were photographed and counted. Extracellular addition of rAGR2 caused a significant dose-dependent increase in migration (BxPC-3-7-fold increase; MiaPaCa-2-3-fold increase) and invasion (BxPC-3-10-fold increase; MiaPaCa-2-3-fold increase). (D) For analysis of apoptosis, BxPC-3 cells were treated with and without Gem (1 μM) and AGR2 (100 nM). […] Data shown are mean±SE for 3 experiments (*p<0.05 vs. control).
as §1, with “daily. Cell numbers were estimated after 48 h by MTS assay as described previously (Ramachandran et al., 2007).” for “daily.”

[3] = tested on: AsPC-1 cells; assay: Model 1 AsPC-1 aggressive cell model, orthotopic tumors; type: in vivo, athymic nude mice
Experimental: In vivo studies. In vivo experiments were conducted with athymic nude mice (B6.Cg-Foxn1^nu/J—female—age 9 weeks) (NCI, Bethesda, Md.) according to the UT MDACC regulatory standards and IUCAC committee approval. Orthotopic tumors were developed with luciferase-labeled cells (0.25×10^6). IgG (Cat #OB010701; Southern Biotech, Birmingham, Ala.) served as a control Ab.
Model 1 (AsPC-1-Aggressive Cell Model)—Two weeks after the injection of the aggressive AsPC-1 cells, when the tumors weighed less than 0.5 g (as surgically confirmed from a parallel untreated group), mice (n=6) were treated with control or mAbs (5 mg each of AGR2/C4.4A mAb in combination/kg/body weight/twice a week/i.p) and with or without Gem (100 mg/kg body weight/once a week/i.p) until all of the control mice had died (seven weeks). Tumor weight and metastasis to liver and lung were compared between control and treated groups ex vivo at the end of the experiment.

Structure (SMILES): Nc1ccn([C@@H]2O[C@H](CO)[C@@H](O)C2(F)F)c(=O)n1 [Gem, Gemcitabine, reference compound]
- increase in apoptosis [1]: 3 fold
- increase in apoptosis [2]: 1 fold
- effect on tumor growth and metastasis incidence ([3]; Gem 100 mg/kg once a week i.p., alone or in combination with the mAbs): no significant effect
- mice remained alive ([3]; after four weeks of treatment (six weeks total), when all control Ab mice had died): 30%
